Drawing on the NIST ThermoML archive (doi:10.1016/j.jct.2012.09.015), this text covers speed of sound and mass density for three molecules.

By speed of sound is commonly meant the propagation velocity of pressure waves in the medium. For orientation: mass density means the mass of a sample divided by its volume.

The conditions of the data set: 101.33 kPa, Liquid; for speed of sound: Sing-around technique in a fixed-path interferometer; for mass density: Vibrating tube method.

± gives the expanded uncertainty stated by the source.

On to `CCCCCC` [hexane], for which the speed of sound (298.15 K) was found to be 1077 ± 2 m/s; the speed of sound (303.15 K) was 1054 ± 2 m/s; the speed of sound (308.15 K) is 1032 ± 2 m/s; the speed of sound (313.15 K) was 1010 ± 2 m/s; the speed of sound (318.15 K) is reported as 988 ± 2 m/s; the speed of sound (323.15 K) is 965 ± 2 m/s. Moreover, the mass density is 655.21 ± 0.26 kg/m3 (298.15 K); 650.64 ± 0.26 kg/m3 (303.15 K); 646.03 ± 0.26 kg/m3 (308.15 K); 641.37 ± 0.26 kg/m3 (313.15 K); 636.67 ± 0.26 kg/m3 (318.15 K); 631.92 ± 0.26 kg/m3 (323.15 K).
As to `CCCCCCC` [heptane], the speed of sound was determined as 1131 ± 1 m/s (298.15 K); 1109 ± 1 m/s (303.15 K); 1088 ± 1 m/s (308.15 K); 1066 ± 1 m/s (313.15 K); 1045 ± 1 m/s (318.15 K); 1024 ± 1 m/s (323.15 K). Further, the mass density was 679.91 ± 0.18 kg/m3 (298.15 K); 675.63 ± 0.19 kg/m3 (303.15 K); 671.33 ± 0.19 kg/m3 (308.15 K); 667.01 ± 0.19 kg/m3 (313.15 K); 662.65 ± 0.19 kg/m3 (318.15 K); 658.26 ± 0.19 kg/m3 (323.15 K).
As to `C1CCCCC1` [cyclohexane], the speed of sound by setting is: (298.15 K) 1254 ± 1 m/s; (303.15 K) 1229 ± 1 m/s; (308.15 K) 1205 ± 1 m/s; (313.15 K) 1181 ± 1 m/s; (318.15 K) 1157 ± 1 m/s; (323.15 K) 1134 ± 1 m/s. Besides, the mass density (298.15 K) is 773.86 ± 0.14 kg/m3; the mass density (303.15 K) is listed as 769.12 ± 0.14 kg/m3; the mass density (308.15 K) was determined as 764.35 ± 0.14 kg/m3; the mass density (313.15 K) turned out to be 759.56 ± 0.14 kg/m3; the mass density (318.15 K) is given as 754.74 ± 0.14 kg/m3; the mass density (323.15 K) turned out to be 749.88 ± 0.15 kg/m3.
